Reference: US20160145247A1, “Aminomethyl-Biaryl Derivatives Complement Factor D inhibitors and uses thereof” (NOVARTIS AG, priority 2013, published 2016)

Target: T1, factor D (Homo sapiens, UniProt P00746)
T1 construct: made in house; host or cells: E. coli
Experiment: factor D inhibition assay of Biological Example 2
Type: biochemical

T1 sequence (P00746 26-253): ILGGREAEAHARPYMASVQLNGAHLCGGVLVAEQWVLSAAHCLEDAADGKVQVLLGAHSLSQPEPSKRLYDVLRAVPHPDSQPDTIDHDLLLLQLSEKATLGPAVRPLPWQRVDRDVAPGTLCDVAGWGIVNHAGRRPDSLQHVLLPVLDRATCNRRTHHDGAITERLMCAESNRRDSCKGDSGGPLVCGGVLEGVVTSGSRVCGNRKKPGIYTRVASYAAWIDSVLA

IC50 [nM] | SMILES
10 | COCCNc1cc(C(=O)Nc2ccccc2CC(=O)O)cc(-c2cc(F)cc(CN)c2)c1 [Example 14-E]
9 | NCc1cc(F)cc(-c2cc(OC[C@@H]3CCCO3)cc(C(=O)Nc3ccccc3CC(=O)O)c2)c1 [Example 15-B, (S)-2-(2-(3′-(Aminomethyl)-5′-fluoro-5-((tetrahydrofuran-2-yl)methoxy)-[1,1′-biphenyl]-3-ylcarboxamido)phenyl)acetic acid]
470 | NCc1cccc(-c2cccc(CCc3ccccc3CC(=O)O)c2)c1 [Example 16-D, 2-(2-(2-(3′-(Aminomethyl)-[1,1′-biphenyl]-3-yl)ethyl)phenyl)acetic acid]
399 | NCc1cccc(-c2cccc(C(=O)Nc3cc(Cl)ccc3CC(=O)O)c2)c1 [Example 17-B, 2-(2-(3′-(Aminomethyl)-[1,1′-biphenyl]-3-ylcarboxamido)-4-chlorophenyl)acetic acid]
414 | NCc1cc(F)cc(-c2cccc(C(=O)Nc3cc(Br)ccc3CC(=O)O)c2)c1 [Example 21-A]
7680 | NCc1cc(F)cc(-c2cccc(C(=O)Nc3cccc(Br)c3CC(=O)O)c2)c1 [Example 21-G]
940 | Cc1cccc(NC(=O)c2cccc(-c3cc(F)cc(CN)c3)c2)c1CC(=O)O [Example 21-H]
517 | NCc1cc(F)cc(-c2cccc(C(=O)Nc3ccc(F)cc3CC(=O)O)c2)c1 [Example 21-J]
105 | CCc1ccc(NC(=O)c2cccc(-c3cc(F)cc(CN)c3)n2)c(CC(=O)O)c1 [Example 21-L]
396 | CCc1ccc(NC(=O)c2cccc(-c3cc(F)cc(CN)c3)c2)c(CC(=O)O)c1 [Example 23-C, 2-(2-(3′-(Aminomethyl)-5′-fluoro-[1,1′-biphenyl]-3-ylcarboxamido)-5-ethylphenyl)acetic acid]
1740 | CC(O)c1ccc(NC(=O)c2cccc(-c3cc(F)cc(CN)c3)c2)c(CC(=O)O)c1 (centres unmarked) [Example 24, 2-(2-(3′-(Aminomethyl)-5′-fluoro-[1,1′-biphenyl]-3-ylcarboxamido)-5-(1-hydroxyethyl)phenyl)acetic acid]
11 | CCc1ccc(NC(=O)c2cc(NC[C@@H]3CCCO3)cc(-c3cc(F)cc(CN)c3)c2)c(CC(=O)O)c1 [Example 25-D, (S)-2-(2-(3′-(Aminomethyl)-5′-fluoro-5-(((tetrahydrofuran-2-yl)methyl)amino)-[1,1′-biphenyl]-3-ylcarboxamido)-5-ethylphenyl)acetic acid]
94 | NCc1cccc(-c2csc(C(=O)Nc3ccccc3CC(=O)O)n2)c1 [Example 26-B, 2-(2-(4-(3-(Aminomethyl)phenyl)thiazole-2-carboxamido)phenyl)acetic acid]
50 | NCc1cccc(-c2nc(C(=O)Nc3ccccc3CC(=O)O)cs2)c1 [Example 27, 2-(2-(2-(3-(Aminomethyl)phenyl)thiazole-4-carboxamido)phenyl)acetic acid]
7 | NCc1cc(F)cc(-c2nc(C(=O)Nc3ccccc3CC(=O)O)c(NC[C@@H]3CCCO3)s2)c1 [Example 33, (S)-2-(2-(2-(3-(Aminomethyl)-5-fluorophenyl)-5-(((tetrahydrofuran-2-yl)methyl)amino)thiazole-4-carboxamido)phenyl)acetic acid]

Continued, molecule first:

SMILES | IC50 [nM]
NCc1cc(F)cc(-c2cc(NC[C@H]3CCCO3)cc(C(=O)Nc3ccccc3CC(=O)O)c2)c1 [Example 14-D] | 21
NCc1cccc(-c2cccc(C#Cc3ccccc3CC(=O)O)c2)c1 [Example 16-C, 2-(2-((3′-(Aminomethyl)-[1,1′-biphenyl]-3-yl)ethynyl)phenyl)acetic acid] | 338
NCc1cc(F)cc(-c2cccc(C(=O)Nc3ccc(Br)cc3CC(=O)O)c2)c1 [Example 18-B, 2-(2-(3′-(Aminomethyl)-5′-fluoro-[1,1′-biphenyl]-3-ylcarboxamido)-5-bromophenyl)acetic acid] | 8790
NCc1cc(F)cc(-c2cccc(C(=O)Nc3ccccc3CC(=O)O)n2)c1 [Example 20-B, 2-(2-(6-(3-(Aminomethyl)-5-fluorophenyl)picolinamido)phenyl)acetic acid] | 16
Cc1ccc(CC(=O)O)c(NC(=O)c2cccc(-c3cc(F)cc(CN)c3)c2)c1 [Example 21-B] | 47
Cc1cccc(CC(=O)O)c1NC(=O)c1cccc(-c2cc(F)cc(CN)c2)c1 [Example 21-C] | 109
NCc1cc(F)cc(-c2cccc(C(=O)Nc3c(F)cccc3CC(=O)O)c2)c1 [Example 21-D] | 989
NCc1cc(F)cc(-c2cccc(C(=O)Nc3c(Br)cccc3CC(=O)O)n2)c1 [Example 21-E] | 86
NCc1cc(F)cc(-c2cccc(C(=O)Nc3cccc(Cl)c3CC(=O)O)c2)c1 [Example 21-F] | 3120
NCc1cc(F)cc(-c2cccc(C(=O)Nc3cc(F)ccc3CC(=O)O)c2)c1 [Example 21-I] | 469
COc1cccc(CC(=O)O)c1NC(=O)c1cccc(-c2cc(F)cc(CN)c2)c1 [Example 21-K] | 126
Cc1ccc(CC(=O)O)c(NC(=O)c2cccc(-c3cc(F)cc(CN)c3)n2)c1 [Example 21-M] | 22
NCc1cc(F)cc(-c2cccc(C(=O)Nc3c(Cl)cccc3CC(=O)O)n2)c1 [Example 21-N] | 138
CCc1ccc(CC(=O)O)c(NC(=O)c2cccc(-c3cc(F)cc(CN)c3)n2)c1 [Example 21-O] | 12
NCc1cc(F)cc(-c2cccc(C(=O)Nc3ccc(Cl)cc3CC(=O)O)n2)c1 [Example 21-P] | 118
COc1ccc(CC(=O)O)c(NC(=O)c2cccc(-c3cc(F)cc(CN)c3)n2)c1 [Example 21-Q] | 22
Cc1ccc(NC(=O)c2cccc(-c3cc(F)cc(CN)c3)c2)c(CC(=O)O)c1 [Example 22-C, 2-(2-(3′-(aminomethyl)-5′-fluoro-[1,1′-biphenyl]-3-ylcarboxamido)-5-methylphenyl)acetic acid] | 835
NCc1cc(F)cc(-c2csc(C(=O)Nc3ccccc3CC(=O)O)n2)c1 [Example 28-B, 2-(2-(4-(3-(aminomethyl)-5-fluorophenyl)thiazole-2-carboxamido)phenyl)acetic acid] | 57
NCc1cc(F)cc(-c2nc(C(=O)Nc3ccccc3CC(=O)O)cs2)c1 [Example 29, 2-(2-(2-(3-(aminomethyl)-5-fluorophenyl)thiazole-4-carboxamido)phenyl)acetic acid] | 62
NCc1cc(F)cc(-c2nc(C(=O)Nc3ccccc3CC(=O)O)c(Cl)s2)c1 [Example 30-D, 2-(2-(2-(3-(aminomethyl)-5-fluorophenyl)-5-chlorothiazole-4-carboxamido)phenyl)acetic acid] | 31
CNc1sc(-c2cc(F)cc(CN)c2)nc1C(=O)Nc1ccccc1CC(=O)O [Example 31-B, 2-(2-(2-(3-(aminomethyl)-5-fluorophenyl)-5-(methylamino)thiazole-4-carboxamido)phenyl)acetic acid] | 16
NCc1cc(F)cc(-c2nc(C(=O)Nc3ccccc3CC(=O)O)c(N3CCOCC3)s2)c1 [Example 32, 2-(2-(2-(3-(aminomethyl)-5-fluorophenyl)-5-morpholinothiazole-4-carboxamido)phenyl)acetic acid] | 49
CNc1sc(-c2cc(F)cc(CN)c2)nc1C(=O)Nc1cc(C)ccc1CC(=O)O [Example 34-C, 2-(2-(2-(3-(Aminomethyl)-5-fluorophenyl)-5-(methylamino)thiazole-4-carboxamido)-4-methylphenyl)acetic acid] | 5
